Laboratory results: patent US8816095B2, “Na channels, disease, and related assays and compositions” (Georgetown University, priority 2008, dated 2014)

Columns and labels:
[1] = system: human prostate xenograft PC3; assay: PC3 xenograft study; format: in vivo; conditions: mice bearing PC3 xenografts; 10 mg/kg ip every other day
Experimental: Intraperitoneally (ip) 10 mg/kg of racemic (±)-1 and each enantiomer was administered in mice bearing PC3 xenografts (FIG. 16). This dose was administered qd every other day for 24 days and effects on reducing the tumor volume were measured.
PC-3 cell line (ATCC, Manassas, Va.) was cultured in RPMI-1640 with L-glutamine (Mediatech Inc., Herdon, Va.) containing 5% fetal bovine serum (FBS), 2.5 mM L-glutamine at 37° C. with 5% CO2.
Male athymic balbc/nude mice (18-22 g) were injected with 3×106 (0.3 mL) of the human prostate cancer cells (PC3). The human prostate cancer cells were injected in the subcutaneous tissue of the right axillary region of the mice. One week after the injection, the mice were randomly sorted into four groups with 6 mice per group. […] The stock of each compound was added to polyethylene glycol 400 (PEG) (Hampton) and PBS in a 1:1 ratio. The test concentrations were obtained by diluting with PEG/PBS. The tumor-bearing mice received an intraperitoneal injection (IP) with either 10 mg/kg of (±)-1, R-(−)-1 or S-(+)-1 or vehicle control respectively once every other day for 4 weeks. At the same time, the tumor size of each mouse was measured by caliper and calculated by the formula: Length×width×height/2.

[2] = mouse, in vivo, ip
[3] = target: T1, hNav1.7 (Homo sapiens, UniProt Q15858); assay: Fluorescent (FRET) based sodium channel assay, hNav1.7; format: cell-based; conditions: HEK293 stably transfected with hNav1.7, 20 μM veratridine, read-out: hNav 1.7 IC50
T1 construct: expressed in transfected cells; host or cells: HEK293
T1 sequence (Q15858 whole entry): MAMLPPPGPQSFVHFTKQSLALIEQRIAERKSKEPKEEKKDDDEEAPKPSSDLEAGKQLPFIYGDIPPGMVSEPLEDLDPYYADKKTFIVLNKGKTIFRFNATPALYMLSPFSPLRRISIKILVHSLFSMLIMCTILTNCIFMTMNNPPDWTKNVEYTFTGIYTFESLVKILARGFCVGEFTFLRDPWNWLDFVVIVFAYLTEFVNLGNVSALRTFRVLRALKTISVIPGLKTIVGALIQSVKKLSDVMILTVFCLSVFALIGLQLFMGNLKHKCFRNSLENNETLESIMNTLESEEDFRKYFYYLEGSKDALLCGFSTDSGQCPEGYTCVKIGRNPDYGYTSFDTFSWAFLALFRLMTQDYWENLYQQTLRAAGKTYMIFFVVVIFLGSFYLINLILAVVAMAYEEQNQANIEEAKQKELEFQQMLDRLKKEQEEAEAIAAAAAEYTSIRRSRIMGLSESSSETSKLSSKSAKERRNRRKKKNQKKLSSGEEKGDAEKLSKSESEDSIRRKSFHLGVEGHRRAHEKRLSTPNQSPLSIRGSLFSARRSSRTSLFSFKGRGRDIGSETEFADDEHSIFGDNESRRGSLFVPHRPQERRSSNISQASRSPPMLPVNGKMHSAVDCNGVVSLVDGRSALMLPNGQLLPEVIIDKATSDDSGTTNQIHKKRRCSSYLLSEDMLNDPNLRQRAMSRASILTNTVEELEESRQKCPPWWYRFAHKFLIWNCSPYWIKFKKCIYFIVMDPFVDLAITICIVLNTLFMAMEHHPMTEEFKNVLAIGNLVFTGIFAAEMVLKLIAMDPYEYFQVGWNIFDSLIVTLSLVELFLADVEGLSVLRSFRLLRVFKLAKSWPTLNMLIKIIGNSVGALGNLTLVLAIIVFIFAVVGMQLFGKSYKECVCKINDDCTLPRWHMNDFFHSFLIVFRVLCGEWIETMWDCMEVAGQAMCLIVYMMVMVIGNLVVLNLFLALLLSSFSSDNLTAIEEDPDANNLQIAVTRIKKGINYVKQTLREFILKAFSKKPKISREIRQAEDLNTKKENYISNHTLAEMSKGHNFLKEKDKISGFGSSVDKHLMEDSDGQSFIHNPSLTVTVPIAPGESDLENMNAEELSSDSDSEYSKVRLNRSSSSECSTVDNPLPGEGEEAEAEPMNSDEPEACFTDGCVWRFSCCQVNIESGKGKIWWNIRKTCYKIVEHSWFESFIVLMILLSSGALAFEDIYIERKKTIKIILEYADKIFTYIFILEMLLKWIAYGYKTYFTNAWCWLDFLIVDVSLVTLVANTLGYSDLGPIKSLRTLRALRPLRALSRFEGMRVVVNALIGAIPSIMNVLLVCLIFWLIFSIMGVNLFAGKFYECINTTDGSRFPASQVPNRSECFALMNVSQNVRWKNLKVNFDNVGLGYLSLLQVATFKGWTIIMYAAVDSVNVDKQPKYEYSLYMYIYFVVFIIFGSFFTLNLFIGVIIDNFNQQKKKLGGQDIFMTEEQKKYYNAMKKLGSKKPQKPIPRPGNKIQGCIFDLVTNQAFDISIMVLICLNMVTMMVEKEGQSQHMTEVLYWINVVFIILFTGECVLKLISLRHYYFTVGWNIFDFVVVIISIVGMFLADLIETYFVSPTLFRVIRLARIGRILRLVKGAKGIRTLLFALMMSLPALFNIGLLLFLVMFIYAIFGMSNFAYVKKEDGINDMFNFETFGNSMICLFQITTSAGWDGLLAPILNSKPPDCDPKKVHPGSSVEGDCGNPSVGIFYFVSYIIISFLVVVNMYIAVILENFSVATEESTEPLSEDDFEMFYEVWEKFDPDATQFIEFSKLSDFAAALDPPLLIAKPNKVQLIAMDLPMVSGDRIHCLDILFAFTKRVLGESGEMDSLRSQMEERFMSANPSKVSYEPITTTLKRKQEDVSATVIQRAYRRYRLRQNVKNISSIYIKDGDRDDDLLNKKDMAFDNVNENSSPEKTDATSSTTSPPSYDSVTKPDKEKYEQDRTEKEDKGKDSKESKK
Experimental: Two isoforms of the channel were examined: hNav1.5, a cardiac sodium channel associated with arrhythmias, and hNav1.7, an isoform found in the peripheral nervous system.
HEK293 cells stably transfected with either hNav1.5 or hNav1.7 were plated at approximately 11,000-20,000 cells/well in flat bottom, poly-D-lysine coated black-wall, clear-bottom, 384-well plates (Becton Dickinson, Bedford, Mass.), and incubated overnight at 37° C. in a 10% CO2 atmosphere in growth medium. Cells were washed with 0.03 mL of Dulbecco's phosphate buffered saline (D-PBS) containing calcium and magnesium. Cells were then incubated with 0.025 mL of a solution containing 10 μM CC2-DMPE and 0.02% pluronic acid in D-PBS with calcium and magnesium; supplemented with 10 mM glucose, and 10 mM Hepes-NaOH, pH 7.4. […] Afterwards, cells were incubated in the dark at 25° C. for 45 min with 0.025 mL of a solution containing 5 μM DiSBAC2(3) in VIPR-S, in the absence or presence of test compound. At the end of the incubation period, the plate was placed in a FLIPR TETRA instrument (MDS Analytical Technologies, Sunnyvale Calif.), illuminated at 390-420 nm, and fluorescence emissions were recorded at approximately 1 Hz at 460 and 580 nm. Following a 7 second baseline reading, 0.025 mL of VIPR-S containing 10 μM veratridine for Nav1.5 or 20 μM veratridine for Nav1.7 was added to each well, and the emissions of both dyes were recorded for an additional 33 seconds. The change in fluorescence resonance energy transfer (FRET) ratio (F/F0) was calculated as: F/F0=((A460/A580/(I460/I580) where A and I represent the readings after or before addition of veratridine, respectively, at the indicated wavelengths. For I, the readings from 2-5 seconds were averaged, and for A, readings from 3 seconds after the signal had reached a plateau level (usually within 30-40 s) were also averaged. Triplicate measurements were performed for each experimental condition and the data were averaged.

[4] = system: CWR22rv-1 cells; assay: CWR22rv-1 prostate cancer cell death (propidium iodide, FACS); format: cell-based, human
Experimental: CWR22Rv1 cells (ATCC, Manassas, Va.) were seeded in 6 well tissue culture plate at density of 300,000 cells/well and maintained in RPMI 1640 (Mediatech, Herndon, Va.) containing 10% fetal bovine serum, 2.5 mM L-glutamine, and penicillin-streptomycin (100 IU/ml and 100 μg/ml, respectively) at 37° C. with 5% CO2. Cells were then switched to serum free RPMI media overnight prior to drug treatment. Compounds were dissolved in 100% dimethylsulfoxide (DMSO) and diluted to the desired concentrations in serum free RPMI. Cells were treated with indicated drug concentrations (in triplicate per treatment point) for 24, 48, 72 hour. After treatment, cells were harvested by trypsinization and fixed in 70% ethanol. The fixed cells were then stained with propidium iodide (50 μg/ml) after treatment with RNase (5 μg/ml). The stained cells were analyzed for DNA content using FACSsort (Becton Dickinson). Cell cycle fractions were quantified with Cell Quest (Becton Dickinson) or ModFit LT (Verity Software House).

[5] = target: T2, hERG potassium channels (Homo sapiens, UniProt Q12809); assay: hERG binding assay ([35S]MK-499 displacement); conditions: [35S]MK-499, HEK-293 hERG membranes
T2 construct: expressed in transfected cells; host or cells: HEK-293 (membranes)
T2 sequence (Q12809 whole entry): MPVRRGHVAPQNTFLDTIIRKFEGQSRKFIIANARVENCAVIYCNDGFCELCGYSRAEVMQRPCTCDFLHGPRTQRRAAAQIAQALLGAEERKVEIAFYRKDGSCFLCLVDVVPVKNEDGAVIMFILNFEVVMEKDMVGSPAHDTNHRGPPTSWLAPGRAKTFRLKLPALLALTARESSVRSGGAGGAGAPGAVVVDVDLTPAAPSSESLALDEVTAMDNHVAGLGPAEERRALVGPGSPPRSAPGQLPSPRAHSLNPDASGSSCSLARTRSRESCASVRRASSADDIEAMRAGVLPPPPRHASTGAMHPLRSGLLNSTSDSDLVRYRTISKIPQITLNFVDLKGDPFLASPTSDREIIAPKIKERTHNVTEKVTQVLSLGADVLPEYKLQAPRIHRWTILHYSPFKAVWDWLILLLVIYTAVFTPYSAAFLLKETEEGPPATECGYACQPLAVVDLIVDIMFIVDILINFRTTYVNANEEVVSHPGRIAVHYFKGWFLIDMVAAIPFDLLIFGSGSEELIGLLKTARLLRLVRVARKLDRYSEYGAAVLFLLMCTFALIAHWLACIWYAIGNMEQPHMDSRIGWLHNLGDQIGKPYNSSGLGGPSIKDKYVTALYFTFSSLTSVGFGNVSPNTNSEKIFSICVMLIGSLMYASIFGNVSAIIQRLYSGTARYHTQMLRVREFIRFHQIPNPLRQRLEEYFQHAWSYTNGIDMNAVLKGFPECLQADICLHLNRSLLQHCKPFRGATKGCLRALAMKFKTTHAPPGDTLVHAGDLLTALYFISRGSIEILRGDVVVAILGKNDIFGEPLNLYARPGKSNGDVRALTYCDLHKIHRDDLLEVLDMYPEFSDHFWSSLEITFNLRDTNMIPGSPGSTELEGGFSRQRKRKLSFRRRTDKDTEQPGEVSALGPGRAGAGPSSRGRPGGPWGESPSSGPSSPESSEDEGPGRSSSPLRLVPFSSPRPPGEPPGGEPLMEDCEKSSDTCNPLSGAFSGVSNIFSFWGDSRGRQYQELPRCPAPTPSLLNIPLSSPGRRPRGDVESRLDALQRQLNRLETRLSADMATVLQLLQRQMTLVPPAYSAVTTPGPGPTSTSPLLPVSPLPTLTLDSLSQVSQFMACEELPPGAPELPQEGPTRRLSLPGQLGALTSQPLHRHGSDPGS
Source text: All four compounds were also counter-screened for human ether-a-go-go-related gene (hERG) activity against the radio-ligand MK-0499. Blockade of hERG K^+ channels is widely regarded as the predominant cause of drug-induced QT prolongation. (Aronov, A J Med Chem. 2006 Nov. 16; 49(23):6917-21).
MK-499, a potent hERG blocker, was used in a ligand binding assay to evaluate the binding of test compounds to hERG potassium channels as previously described (Wang, J et al. Am J Physiol Heart Circ Physiol, 2003, 284: H256-H267).^2 Test compounds were incubated with 0.05 nM of radiolabeled MK-499 ([35S]MK-499; specific Activity=1,279,010 μCi/μmol) in an assay buffer solution (70 mM NaCl, 60 mM KCl, 10 mM HEPES/NaOH (pH 7.4), 2 mM MgCl2, 1 mM CaCl2) also containing membranes isolated from HEK-293 cells stably expressing hERG channels in 96 well polypropylene deep-well assay plates at room temperature (25° C.) for >90 min. Assay plates were rinsed three time with buffer (130 mM NaCl, 10 mM HEPES/NaOH (pH 7.4), 2 mM MgCl2, 1 mM CaCl2) and the solution transferred to a Packard FilterMate Universal Harvester apparatus and filtered using PerkinElmer UniFilter-96 GF/C 96-well white microplates pre-soaked with 0.3% BSA (10 mL/L of 30% BSA). Plates were dried overnight at 37° C., or for 2 hrs at 56° C. The bottom of the plates were sealed and 0.025 mL of Microscint 0 was added to each well. The plates were top sealed and counted for 2 min/well in a Packard TopCount Scintillation counter. Test compounds were evaluated in a five point titration format using half-log steps from 0.3 μM to 30 μM. […] Less than 5% of the added radioactivity was retained on the filters. Assays were performed in triplicate.

CCCCCCCC(O)(C(N)=O)c1cccc(Cl)c1 (racemic) [(±)-1, 2-(3-chloro-phenyl)-2-hydroxy-nonanoic acid amide]
decrease in tumor volume [1]: 62% | acute rotorod toxicity observations [2]: No deaths, spasms, respiratory disease was reported | IC50 [3]: 1.81 µM | cell death of CWR22rv-1 cells ([4]; 25 μM, after 24 h): marginal effects | cell death of CWR22rv-1 cells ([4]; after 72 h): 25% | % inhibition for hERG assay, 0.3 μM ([5]; 0.3 μM): 15% | % inhibition for hERG assay, 1 μM ([5]; 1 μM): 17% | % inhibition for hERG assay, 3 μM ([5]; 3 μM): 15% | % inhibition for hERG assay, 10 μM ([5]; 10 μM): 51% | % inhibition for hERG assay, 30 μM ([5]; 30 μM): 78%
